These compounds were tested on Aliivibrio fischeri (assay: Concentration required for 50% inhibition of 3-oxo-C6-HSL-induced luminescence of the biosensor strain).

Structure (SMILES)	IC50 [µM]
O=C(CCCc1ccccc1)NC1CCOC1=O (centres undefined)	2
Cc1ccc(CC(=O)CC(=O)NC2CCOC2=O)cc1 (centres undefined)	4
O=C(CC(=O)NC1CCOC1=O)CC1CCCCC1 (centres undefined)	1.1
O=C(CC(=O)NC1CCOC1=O)CC1CCCC1 (centres undefined)	0.25
O=C(CC(=O)NC1CCOC1=O)Cc1ccc(Br)cc1 (centres undefined)	2
O=C(COCc1ccccc1)NC1CCOC1=O (centres undefined)	3
O=C(CC(=O)NC1CCOC1=O)Cc1ccccc1 (centres undefined)	2
CC(C)(C)CC(=O)CC(=O)NC1CCOC1=O (centres undefined)	15
O=C(CC(=O)NC1CCOC1=O)Cc1ccccc1Cl (centres undefined)	6
CCCCCC(=O)NC1CCOC1=O (centres undefined)	> 9
O=C(CCCC1CCCCC1)NC1CCOC1=O (centres undefined)	> 6
COc1ccc(CC(=O)CC(=O)NC2CCOC2=O)cc1 (centres undefined)	3
O=C(CSCc1ccccc1)NC1CCOC1=O (centres undefined)	2
CC(C)CC(=O)CC(=O)NC1CCOC1=O (centres undefined)	0.5
O=C(CC(=O)NC1CCOC1=O)Cc1cccc(Cl)c1 (centres undefined)	4
O=C(CC(=O)NC1CCOC1=O)Cc1ccc(F)cc1 (centres undefined)	4
O=C(CC(=O)NC1CCOC1=O)Cc1ccc(C(F)(F)F)cc1 (centres undefined)	10
CCCC(=O)CC(=O)NC1CCOC1=O (centres undefined)	0.2
O=C(CC(=O)NC1CCOC1=O)Cc1ccc(Cl)cc1 (centres undefined)	3
